Measurements: ChEMBL document CHEMBL3414551, “Selective inhibitors of protein methyltransferases” (J Med Chem, 2015)
pIC50, pKd, pKi: −log10 of the molar value.

Experiments:
[1] = biological target: T1, Histone-lysine N-methyltransferase EZH2 (Homo sapiens, UniProt Q15910); test: Inhibition of N-terminal FLAG tagged full-length human EZH2 expressed in baculovirus infected Sf9 cells using H3K27 as substrate after 120 mins by mass spectrophotometric analysis
[2] = biological target: Histone-lysine N-methyltransferase EZH2 (Homo sapiens, UniProt Q15910, Y641F); test: Inhibition of N-terminal FLAG tagged human EZH2 Y641F mutant expressed in baculovirus infected Sf9 cells using H3K27 as substrate after 120 mins by mass spectrophotometric analysis
Chain of Histone-lysine N-methyltransferase EZH2 (Homo sapiens, UniProt Q15910, Y641F) (Q15910 whole entry Y641F): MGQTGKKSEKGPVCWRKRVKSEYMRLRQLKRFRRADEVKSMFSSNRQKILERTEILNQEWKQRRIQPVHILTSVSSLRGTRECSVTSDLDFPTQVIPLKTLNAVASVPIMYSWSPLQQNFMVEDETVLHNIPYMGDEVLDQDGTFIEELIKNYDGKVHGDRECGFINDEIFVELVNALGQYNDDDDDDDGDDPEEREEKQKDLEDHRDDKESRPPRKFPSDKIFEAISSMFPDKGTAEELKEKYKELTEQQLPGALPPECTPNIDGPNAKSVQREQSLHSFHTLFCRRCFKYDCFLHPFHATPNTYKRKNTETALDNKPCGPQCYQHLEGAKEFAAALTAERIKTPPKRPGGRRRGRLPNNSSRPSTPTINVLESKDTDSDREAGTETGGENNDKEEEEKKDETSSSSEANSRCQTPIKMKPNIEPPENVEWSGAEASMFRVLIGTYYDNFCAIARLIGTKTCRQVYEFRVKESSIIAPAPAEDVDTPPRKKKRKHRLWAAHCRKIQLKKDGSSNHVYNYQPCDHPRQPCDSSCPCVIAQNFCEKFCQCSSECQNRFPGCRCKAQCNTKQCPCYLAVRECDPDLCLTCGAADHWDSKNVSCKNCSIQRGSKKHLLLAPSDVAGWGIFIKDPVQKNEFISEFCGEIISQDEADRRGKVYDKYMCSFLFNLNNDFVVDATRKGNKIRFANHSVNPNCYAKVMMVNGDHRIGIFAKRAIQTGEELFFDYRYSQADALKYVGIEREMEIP

[3] = biological target: T1, Histone-lysine N-methyltransferase EZH2; test: Inhibition of N-terminal FLAG tagged full-length human EZH2 expressed in baculovirus infected Sf9 cells using H3K27 as substrate in presence of SAM
[4] = tested on: REH; test: cells; conditions: Homo sapiens
[5] = tested on: Kasumi 1; test: cells; conditions: Homo sapiens
[6] = tested on: 697; test: cells; conditions: Homo sapiens
[7] = cells; conditions: Homo sapiens, HL-60
[8] = tested on: Jurkat; test: cells; conditions: Homo sapiens
[9] = cells; conditions: Homo sapiens, U-937
[10] = biological target: T1, Histone-lysine N-methyltransferase EZH2; test: Inhibition of human EZH2 using SAM and histone H3 (16 to 30) as substrate preincubated for 30 mins followed by substrate addition measured after 90 mins by flash plate assay
[11] = species on record: Homo sapiens; test: Selectivity ratio of IC50 for human SMYD2 to IC50 for N-terminal His6-tagged human SETD8 (191 to 352)
[12] = species on record: Homo sapiens; test: Selectivity ratio of IC50 for N-terminal His6-tagged human PRMT1 (10 to 352) to IC50 for N-terminal His6-tagged human SETD8 (191 to 352)
[13] = species on record: Homo sapiens; test: Selectivity ratio of IC50 for N-terminal His6-tagged human PRMT3 (211 to 531) to IC50 for N-terminal His6-tagged human SETD8 (191 to 352)
[14] = biological target: T1, Histone-lysine N-methyltransferase EZH2; test: Inhibition of EZH2 (unknown origin) using biotinylated-histone H3 (1 to 24) as substrate after 1 hr by scintillation proximity assay in presence of [3H]-SAM
[15] = tested on: Mus musculus; test: Cmax in Swiss albino mouse at 50 mg/kg, po; format: ADME, organism-based; parameters: dose 50 mg/kg, route oral; conditions: in vivo
[16] = biological target: T2, Histone-lysine N-methyltransferase EHMT2 (Homo sapiens, UniProt Q96KQ7); test: Inhibition of G9a (unknown origin) using SAM/biotinylated H3 as substrate preincubated for 1 hr followed by substrate addition measured after 2 hrs by ELISA
T2 sequence (Q96KQ7 whole entry): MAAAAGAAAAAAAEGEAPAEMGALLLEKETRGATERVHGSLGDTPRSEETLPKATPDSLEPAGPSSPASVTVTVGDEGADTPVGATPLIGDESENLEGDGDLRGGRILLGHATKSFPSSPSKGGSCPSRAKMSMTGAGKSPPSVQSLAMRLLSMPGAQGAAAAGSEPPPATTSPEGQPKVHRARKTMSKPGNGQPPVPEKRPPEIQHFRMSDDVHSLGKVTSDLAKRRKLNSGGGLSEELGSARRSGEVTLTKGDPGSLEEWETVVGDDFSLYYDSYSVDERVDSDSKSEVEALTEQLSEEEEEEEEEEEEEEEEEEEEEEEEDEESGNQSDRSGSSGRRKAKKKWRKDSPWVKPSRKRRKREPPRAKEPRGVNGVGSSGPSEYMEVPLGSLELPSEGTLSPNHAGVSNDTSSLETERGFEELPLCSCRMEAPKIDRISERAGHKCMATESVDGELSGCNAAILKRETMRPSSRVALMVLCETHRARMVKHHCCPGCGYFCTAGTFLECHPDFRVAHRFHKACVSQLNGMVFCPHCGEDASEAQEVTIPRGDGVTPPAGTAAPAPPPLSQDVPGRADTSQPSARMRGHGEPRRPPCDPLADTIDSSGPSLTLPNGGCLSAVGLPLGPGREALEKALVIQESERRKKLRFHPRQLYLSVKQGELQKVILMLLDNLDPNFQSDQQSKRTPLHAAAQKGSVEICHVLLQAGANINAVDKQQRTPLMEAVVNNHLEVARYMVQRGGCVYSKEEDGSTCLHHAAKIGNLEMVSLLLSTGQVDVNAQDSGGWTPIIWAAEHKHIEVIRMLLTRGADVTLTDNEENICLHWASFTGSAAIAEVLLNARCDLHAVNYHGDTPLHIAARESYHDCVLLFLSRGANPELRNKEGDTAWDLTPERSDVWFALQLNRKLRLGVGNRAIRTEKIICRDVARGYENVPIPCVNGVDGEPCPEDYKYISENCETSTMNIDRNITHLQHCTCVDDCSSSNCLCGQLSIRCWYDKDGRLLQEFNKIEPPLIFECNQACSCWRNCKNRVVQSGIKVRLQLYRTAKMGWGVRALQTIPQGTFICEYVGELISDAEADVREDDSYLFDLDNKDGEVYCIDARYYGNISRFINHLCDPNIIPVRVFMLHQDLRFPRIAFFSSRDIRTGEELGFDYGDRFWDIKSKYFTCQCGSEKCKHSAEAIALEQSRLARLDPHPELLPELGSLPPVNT

[17] = biological target: T3, Protein arginine N-methyltransferase 1 (Homo sapiens, UniProt Q99873); test: Inhibition of recombinant human GST-tagged PRMT1 using GST-Npl3 as substrate
T3 sequence (Q99873 whole entry): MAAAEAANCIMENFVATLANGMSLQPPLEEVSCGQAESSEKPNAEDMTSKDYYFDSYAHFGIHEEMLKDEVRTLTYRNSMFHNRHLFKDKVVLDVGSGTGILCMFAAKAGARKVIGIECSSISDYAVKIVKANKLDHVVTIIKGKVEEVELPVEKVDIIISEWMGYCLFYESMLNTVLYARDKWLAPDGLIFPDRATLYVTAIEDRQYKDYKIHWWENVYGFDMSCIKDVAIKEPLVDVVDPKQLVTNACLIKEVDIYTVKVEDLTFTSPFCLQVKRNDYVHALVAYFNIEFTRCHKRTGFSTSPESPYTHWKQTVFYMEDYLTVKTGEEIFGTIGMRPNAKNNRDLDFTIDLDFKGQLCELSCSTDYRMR

[18] = biological target: T4, Histone-arginine methyltransferase CARM1 (Homo sapiens, UniProt Q86X55); test: Inhibition of recombinant human GST-tagged CARM1
T4 sequence (Q86X55 whole entry): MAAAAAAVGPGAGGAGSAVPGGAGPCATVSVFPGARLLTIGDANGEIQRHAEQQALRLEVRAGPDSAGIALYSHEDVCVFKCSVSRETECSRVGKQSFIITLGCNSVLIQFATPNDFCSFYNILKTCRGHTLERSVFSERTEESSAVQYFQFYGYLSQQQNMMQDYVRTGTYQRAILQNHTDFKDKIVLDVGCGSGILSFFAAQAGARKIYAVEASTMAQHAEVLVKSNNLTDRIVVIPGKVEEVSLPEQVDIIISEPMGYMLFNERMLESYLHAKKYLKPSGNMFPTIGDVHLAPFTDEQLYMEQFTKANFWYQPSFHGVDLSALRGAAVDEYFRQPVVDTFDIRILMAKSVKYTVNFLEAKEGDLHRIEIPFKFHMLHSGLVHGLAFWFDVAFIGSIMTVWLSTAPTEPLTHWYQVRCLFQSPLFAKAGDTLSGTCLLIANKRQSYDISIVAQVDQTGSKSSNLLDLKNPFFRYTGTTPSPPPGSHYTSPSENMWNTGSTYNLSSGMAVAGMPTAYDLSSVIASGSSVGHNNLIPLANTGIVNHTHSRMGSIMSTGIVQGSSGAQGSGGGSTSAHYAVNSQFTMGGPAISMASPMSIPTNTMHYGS

[19] = biological target: T5, N-lysine methyltransferase KMT5A (Homo sapiens, UniProt Q9NQR1); test: Inhibition of N-terminal His6-tagged human SETD8 (191 to 352) assessed as incorporation of [3H]-methyl group from [3H-Me]-SAM to biotinylated H4K20 peptide substrate preincubated for 10 mins followed by substrate addition by liquid scintillation counting analysis
T5 sequence (Q9NQR1 whole entry): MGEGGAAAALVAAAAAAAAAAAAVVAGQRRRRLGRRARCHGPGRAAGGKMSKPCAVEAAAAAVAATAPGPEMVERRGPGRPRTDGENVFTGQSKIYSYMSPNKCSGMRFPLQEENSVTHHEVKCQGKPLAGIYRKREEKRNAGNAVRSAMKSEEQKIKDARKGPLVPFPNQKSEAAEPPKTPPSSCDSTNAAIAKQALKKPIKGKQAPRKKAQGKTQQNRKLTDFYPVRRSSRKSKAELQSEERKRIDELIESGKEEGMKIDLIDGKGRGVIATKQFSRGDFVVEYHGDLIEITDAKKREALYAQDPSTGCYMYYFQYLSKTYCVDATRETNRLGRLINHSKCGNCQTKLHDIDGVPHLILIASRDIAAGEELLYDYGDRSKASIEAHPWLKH

[20] = biological target: T6, Histone-lysine N-methyltransferase EHMT1 (Homo sapiens, UniProt Q9H9B1); test: Inhibition of recombinant human GLP (951 to 1235) using Histone H3 peptide (1 to 15) as substrate preincubated on ice for 10 mins followed by 5 mins incubation at 30 degC measured 5 mins post substrate addition by mass spectrophotometric analysis
T6 sequence (Q9H9B1 whole entry): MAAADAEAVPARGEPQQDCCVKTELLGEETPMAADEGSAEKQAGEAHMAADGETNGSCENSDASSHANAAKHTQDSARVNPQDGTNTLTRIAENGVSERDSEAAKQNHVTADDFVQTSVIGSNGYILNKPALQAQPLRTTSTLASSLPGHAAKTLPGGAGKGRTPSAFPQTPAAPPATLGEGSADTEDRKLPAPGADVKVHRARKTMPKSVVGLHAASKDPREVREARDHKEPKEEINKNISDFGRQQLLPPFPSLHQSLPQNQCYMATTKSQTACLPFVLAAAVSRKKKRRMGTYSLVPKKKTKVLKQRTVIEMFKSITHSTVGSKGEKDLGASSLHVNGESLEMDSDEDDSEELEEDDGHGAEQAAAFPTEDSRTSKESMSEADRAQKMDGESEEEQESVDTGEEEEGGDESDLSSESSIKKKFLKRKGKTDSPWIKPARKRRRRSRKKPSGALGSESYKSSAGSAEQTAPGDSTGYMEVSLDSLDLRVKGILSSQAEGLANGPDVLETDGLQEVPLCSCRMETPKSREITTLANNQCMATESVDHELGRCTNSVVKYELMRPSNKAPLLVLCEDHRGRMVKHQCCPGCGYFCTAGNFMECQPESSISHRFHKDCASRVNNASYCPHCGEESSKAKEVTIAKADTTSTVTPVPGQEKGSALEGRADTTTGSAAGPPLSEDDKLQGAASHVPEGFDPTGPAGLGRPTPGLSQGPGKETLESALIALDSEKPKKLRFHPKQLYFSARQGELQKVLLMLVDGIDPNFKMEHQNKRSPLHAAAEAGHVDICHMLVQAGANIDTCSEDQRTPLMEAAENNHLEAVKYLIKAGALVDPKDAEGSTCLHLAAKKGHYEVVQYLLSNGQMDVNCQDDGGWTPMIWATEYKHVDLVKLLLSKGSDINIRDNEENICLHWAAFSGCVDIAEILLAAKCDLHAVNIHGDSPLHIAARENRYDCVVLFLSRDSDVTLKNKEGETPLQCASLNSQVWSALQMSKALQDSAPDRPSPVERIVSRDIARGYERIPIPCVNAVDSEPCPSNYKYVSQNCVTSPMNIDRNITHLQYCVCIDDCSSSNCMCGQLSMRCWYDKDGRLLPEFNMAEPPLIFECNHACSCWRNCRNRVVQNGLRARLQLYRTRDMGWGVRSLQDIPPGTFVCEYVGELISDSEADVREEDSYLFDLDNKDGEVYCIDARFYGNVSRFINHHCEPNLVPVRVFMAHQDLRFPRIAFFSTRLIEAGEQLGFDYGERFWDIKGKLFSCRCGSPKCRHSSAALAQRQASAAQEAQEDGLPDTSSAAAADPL

[21] = biological target: Histone-lysine N-methyltransferase, H3 lysine-79 specific (Homo sapiens, UniProt Q8TEK3); test: Inhibition of DOT1L in human MCF10A cells assessed as reduction of H3K79 level; format: cell-based, MCF-10A
Chain of Histone-lysine N-methyltransferase, H3 lysine-79 specific (Q8TEK3 whole entry): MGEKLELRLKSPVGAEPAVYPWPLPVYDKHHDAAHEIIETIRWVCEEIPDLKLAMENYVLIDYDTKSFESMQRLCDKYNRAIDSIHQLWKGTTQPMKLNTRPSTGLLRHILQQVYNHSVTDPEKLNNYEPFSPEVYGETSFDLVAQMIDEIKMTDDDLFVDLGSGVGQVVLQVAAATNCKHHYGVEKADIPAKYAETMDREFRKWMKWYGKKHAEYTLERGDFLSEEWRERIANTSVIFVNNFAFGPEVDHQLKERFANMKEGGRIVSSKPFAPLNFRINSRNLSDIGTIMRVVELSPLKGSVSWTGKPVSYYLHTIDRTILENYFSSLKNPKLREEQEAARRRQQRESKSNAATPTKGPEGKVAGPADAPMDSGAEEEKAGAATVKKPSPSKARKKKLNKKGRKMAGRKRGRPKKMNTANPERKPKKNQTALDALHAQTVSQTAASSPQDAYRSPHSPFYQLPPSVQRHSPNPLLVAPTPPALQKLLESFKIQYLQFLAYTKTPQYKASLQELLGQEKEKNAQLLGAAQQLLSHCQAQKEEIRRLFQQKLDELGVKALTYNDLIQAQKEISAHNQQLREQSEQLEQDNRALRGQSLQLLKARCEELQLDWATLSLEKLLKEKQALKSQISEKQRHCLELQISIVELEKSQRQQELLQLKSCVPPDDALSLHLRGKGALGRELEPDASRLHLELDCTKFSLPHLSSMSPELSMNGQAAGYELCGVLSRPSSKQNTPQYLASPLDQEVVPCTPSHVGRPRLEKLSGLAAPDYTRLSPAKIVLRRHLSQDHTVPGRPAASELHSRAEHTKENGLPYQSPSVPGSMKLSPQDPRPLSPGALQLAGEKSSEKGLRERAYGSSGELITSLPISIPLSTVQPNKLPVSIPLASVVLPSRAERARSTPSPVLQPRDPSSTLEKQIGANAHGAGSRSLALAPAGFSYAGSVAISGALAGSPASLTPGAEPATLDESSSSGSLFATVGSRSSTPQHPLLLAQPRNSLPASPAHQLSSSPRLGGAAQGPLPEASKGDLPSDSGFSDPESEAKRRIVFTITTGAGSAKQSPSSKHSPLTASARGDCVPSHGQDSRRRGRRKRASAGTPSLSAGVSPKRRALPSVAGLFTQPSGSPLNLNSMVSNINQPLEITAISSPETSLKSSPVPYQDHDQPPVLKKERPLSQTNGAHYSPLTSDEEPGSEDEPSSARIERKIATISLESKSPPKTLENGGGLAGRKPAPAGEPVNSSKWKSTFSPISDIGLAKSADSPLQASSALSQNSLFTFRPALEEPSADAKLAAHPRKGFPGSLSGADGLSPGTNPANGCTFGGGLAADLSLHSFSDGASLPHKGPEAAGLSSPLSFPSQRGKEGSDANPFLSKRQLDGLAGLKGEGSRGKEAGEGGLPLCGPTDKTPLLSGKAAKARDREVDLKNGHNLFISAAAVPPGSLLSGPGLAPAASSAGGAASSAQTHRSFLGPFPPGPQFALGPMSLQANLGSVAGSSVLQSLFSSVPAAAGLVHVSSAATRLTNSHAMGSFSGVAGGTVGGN

[22] = biological target: T3, Protein arginine N-methyltransferase 1; test: Inhibition of recombinant GST-tagged PRMT1 (unknown origin) using GST-P3 as substrate after 90 mins by scintillation counting analysis in presence of [3H]AdoMet
[23] = biological target: N-lysine methyltransferase SMYD2 (Homo sapiens, UniProt Q9NRG4); test: Binding affinity to recombinant human full-length SMYD2 (1 to 433) by ITC analysis
Chain of N-lysine methyltransferase SMYD2 (Q9NRG4 whole entry): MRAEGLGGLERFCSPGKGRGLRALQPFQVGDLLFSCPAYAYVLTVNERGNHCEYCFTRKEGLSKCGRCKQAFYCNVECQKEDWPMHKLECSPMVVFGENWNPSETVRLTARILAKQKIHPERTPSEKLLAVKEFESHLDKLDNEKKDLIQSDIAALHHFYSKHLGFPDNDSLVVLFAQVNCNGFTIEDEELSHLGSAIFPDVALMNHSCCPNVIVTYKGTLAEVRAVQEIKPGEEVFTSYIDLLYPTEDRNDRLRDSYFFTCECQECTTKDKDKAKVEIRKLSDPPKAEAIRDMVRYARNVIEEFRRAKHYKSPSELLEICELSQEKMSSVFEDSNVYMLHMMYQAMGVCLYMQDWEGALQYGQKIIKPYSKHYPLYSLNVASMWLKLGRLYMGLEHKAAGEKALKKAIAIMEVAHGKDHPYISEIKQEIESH

[24] = biological target: T7, Histone-arginine methyltransferase CARM1 (Homo sapiens) (UniProt Q86X55); test: Inhibition of CARM1 in human HeLa cells assessed as reduction of H3R17 methylation at 5 uM after 24 hrs by Western blot analysis relative to control; format: cell-based
T7 sequence (whole entry): T4 sequence (Q86X55 whole entry)

T1 sequence (Q15910 whole entry): as the sequence (Q15910 whole entry Y641F) above, with F641Y counted along it

`CCC(CC)n1ccc2c(C(=O)NCc3c(C)cc(C)[nH]c3=O)cc(C#N)cc21` showed a pIC50 [1] of 7.82, a pIC50 [2] of 7.89 and a pKi [3] of 7.89.
With `CC(C)N(CCCNC(=O)Nc1ccc(C(C)(C)C)cc1)C[C@H]1O[C@@H](n2ccc3c(N)ncnc32)[C@H](O)[C@@H]1O` the pIC50 [4] was < 5.00, the pIC50 [5] was < 5.00 and the pIC50 [6] was < 5.00. For the same compound, the pIC50 [7] was < 5.00, the pIC50 [8] was < 5.00 and the pIC50 [9] was < 5.00.
With `Cc1cc(C)c(CNC(=O)c2cc(-c3ccc4c(c3)OCCO4)nc3c2cnn3C(C)C)c(=O)[nH]1` the pIC50 [10] was 6.21.
In the case of `O=C1C(Cl)=C(NCCN2CCOCC2)C(=O)c2ncccc21`, the Ratio IC50 [11] was 2.5, the Ratio IC50 [12] was > 6 and the Ratio IC50 [13] was > 6.
For `CCCc1cc(C)[nH]c(=O)c1CNC(=O)c1cc(-c2ccc(N3CCN(C(C)C)CC3)nc2)cc2c1cnn2C(C)C`, the pIC50 [14] was > 8.00 and the Cmax [15] was 4.7 µM.
For `CN1C(=O)[C@@H]2C[C@@]3([C@@]45C[C@H]6C(=O)N(C)[C@@H](CO)C(=O)N6[C@@H]4Nc4ccccc45)c4ccccc4N[C@H]3N2C(=O)[C@@H]1CO`, the pIC50 [16] was < 4.30.
With `COc1ccc(/N=N/c2c(S(=O)(=O)O)cc3cc(Nc4nc(Cl)nc(Cl)n4)ccc3c2O)cc1` the pIC50 [17] was 5.38 and the pIC50 [18] was 5.59.
In the case of `Cc1ccc(/N=C2\CC(=O)c3sc(C)nc3C2=O)cc1`, the pIC50 [19] was 6.30.
`COc1cc2c(NC3CCN(CCCCCN)CC3)nc(NCCCN(C)C)nc2cc1OCCCCCN` showed a pIC50 [20] of 7.00.
Work on `CC(C)N(CCCNC(=O)Nc1ccc(C(C)(C)C)cc1)C[C@H]1O[C@@H](n2cc(Br)c3c(N)ncnc32)[C@H](O)[C@@H]1O` yielded a pIC50 [21] of 8.06.
`NCCCN(CC[C@H](N)C(=O)O)C[C@H]1O[C@@H](n2cnc3c(N)ncnc32)[C@H](O)[C@@H]1O` showed a pIC50 [22] of 5.41.
Work on `CCCc1cc(C)[nH]c(=O)c1CNC(=O)c1cc(-c2ccc(N3CCN(CCCCc4cn(CCN5C(=O)\C(=C/C=C/C=C6/N(CCC(=O)OCOC(C)=O)c7ccc(C(=O)OCOC(C)=O)cc7C6(C)C)C(=O)N(CC)C5=O)nn4)CC3)nc2)cc2c1cnn2C(C)C` yielded a pIC50 [14] of 7.68.
In the case of `O=C1COc2c(CCNCCN(C(=O)CCNCCc3ccc(Cl)c(Cl)c3)C3CCCCC3)ccc(O)c2N1`, the pKd [23] was 6.30.
For `O=c1oc2c(O)c(O)cc3c(=O)oc4c(O)c(O)cc1c4c23`, the inhibition [24] was > 50%.
